The record followed here is US12011444B2, “N-substituted indole derivatives as PGE2 receptor modulators” (Idorsia Pharmaceuticals Ltd, priority 2015, dated 2024).

One assay concerns the target EP4 (Homo sapiens (Human), UniProt P35408). The assay can be described thus: hEP4 cAMP assay (BT549 breast cancer cells, HTRF cAMP). The class given is cell-based. The following applies: antagonistic activity; mean values where measured multiple times. As to the method:
Plate is pre-incubated 45 minutes at room temperature. Subsequently, 2.5 microliters of PGE2 (final conc. 6 nM) are transferred into the assay plate. Plate is incubated 30 minutes at room temperature.
Background: Cyclic AMP is a second messenger, typically raised through Gs and lowered through Gi signalling.

The target in a further assay is EP2 (Homo sapiens (Human), UniProt P43116).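 Also: antagonism of PGE2-stimulated cAMP accumulation in SF295 human glioblastoma cells with endogenous EP2, cAMP read by HTRF, expressed relative to DMSO control.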

As usually defined, the IC50 is the midpoint of a concentration-inhibition curve. A higher IC50 goes with lower potency.

Chain of EP4 (P35408 whole entry): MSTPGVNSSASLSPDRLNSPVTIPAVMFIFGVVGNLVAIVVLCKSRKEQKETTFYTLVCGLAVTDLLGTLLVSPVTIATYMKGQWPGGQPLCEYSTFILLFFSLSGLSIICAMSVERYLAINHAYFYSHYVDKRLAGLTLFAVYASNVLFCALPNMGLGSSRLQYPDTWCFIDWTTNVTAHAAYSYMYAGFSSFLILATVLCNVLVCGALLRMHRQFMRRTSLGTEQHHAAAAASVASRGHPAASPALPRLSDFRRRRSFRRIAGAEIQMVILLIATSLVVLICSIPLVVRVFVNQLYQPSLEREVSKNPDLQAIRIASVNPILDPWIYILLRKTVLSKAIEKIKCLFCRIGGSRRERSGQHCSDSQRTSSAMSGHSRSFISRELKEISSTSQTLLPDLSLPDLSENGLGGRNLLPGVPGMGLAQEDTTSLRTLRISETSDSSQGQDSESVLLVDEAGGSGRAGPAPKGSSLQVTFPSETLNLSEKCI
Chain of EP2 (P43116 whole entry): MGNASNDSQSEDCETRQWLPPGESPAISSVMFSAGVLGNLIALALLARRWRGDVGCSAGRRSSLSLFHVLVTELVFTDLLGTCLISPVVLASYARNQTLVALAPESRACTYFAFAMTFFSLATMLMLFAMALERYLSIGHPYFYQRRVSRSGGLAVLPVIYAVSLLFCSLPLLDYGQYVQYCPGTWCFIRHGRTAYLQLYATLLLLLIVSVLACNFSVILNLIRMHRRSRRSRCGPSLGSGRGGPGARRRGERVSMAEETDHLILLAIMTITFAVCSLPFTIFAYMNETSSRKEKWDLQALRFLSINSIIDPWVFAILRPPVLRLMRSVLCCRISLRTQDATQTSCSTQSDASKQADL

As to `COc1cccc2c1cc(C)n2CCNc1cc(-c2cc(Cl)c(C(=O)O)c(OCC(F)(F)F)c2)ncn1` [compound 720], the IC50 was 150 nM on EP4 and 10 nM on EP2.

For `CCc1cc(-c2cc(NCCn3c(C)cc4c(OC)ccc(Cl)c43)ncn2)cc(F)c1C(=O)O` [compound 429], the IC50 against EP4 was determined as 775 nM; against EP2, 25 nM.

Take `CCCc1cc(-c2cc(NCCn3c(C)cc4c(OC)c(F)ccc43)ncn2)cc(Cl)c1C(=O)O` [compound 517]: the IC50 on EP4 turned out to be 373 nM; at EP2 it was 97 nM.

For the molecule `COc1cc(-c2cc(NCCn3c(C)cc4c(OC)ccc(Cl)c43)ncn2)ccc1-c1nnn[nH]1` [compound 684, [2-(7-Chloro-4-methoxy-2-methyl-indol-1-yl)-ethyl]-{6-[3-methoxy-4-(1H-tetrazol-5-yl)-phenyl]-pyrimidin-4-yl}-amine], the IC50 against EP4 was determined as 471 nM; on EP2, 36 nM.

Take `CCCOc1cc(-c2cc(NCCn3c(C)cc4c(C)c(F)cc(F)c43)ncn2)cc(Cl)c1C(=O)O` [compound 629]: the IC50 on EP4 was 98 nM; on EP2, 26 nM.

For `CCCOc1cc(-c2cc(NCCn3c(C)cc4c(OC)ccc(F)c43)ncn2)cc(F)c1C(=O)O` [compound 610], the IC50 was 139 nM at EP4 and 22 nM at EP2.

With `Cc1cc2c(Cl)ccc(Cl)c2n1CCNc1cc(-c2ccc(C(=O)O)c(SC(C)C)c2)ncn1` [compound 424], the figures for the IC50 against EP4 and on EP2 were 257 nM and 31 nM, respectively.

As for `COc1cc(F)cc2c1cc(C)n2CCNc1cc(-c2ccc(-c3coc(C)n3)cc2)ncn1` [compound 585], the IC50 against EP4 stood at 203 nM; at EP2 it was 31 nM.

Regarding `CCOc1cc(-c2cc(NCCn3c(C)cc4c(OC)c(Cl)cc(F)c43)ncn2)sc1C(=O)O` [compound 409], the IC50 against EP4 turned out to be 146 nM; at EP2, 345 nM.

Regarding `CCOC(=O)c1sc(-c2cc(NCCn3c(C)cc4c(OC)ccc(F)c43)ncn2)cc1OCC` [Example 790, 3-Ethoxy-5-{6-[2-(7-fluoro-4-methoxy-2-methyl-indol-1-yl)-ethylamino]-pyrimidin-4-yl}-thiophene-2-carboxylic acid ethyl ester], the IC50 on EP4 was determined as 101 nM; against EP2 it was 42 nM.

Turning to `COc1ccc(F)c2c1cc(C)n2CCNc1cc(-c2ccc(C3(C(=O)O)CCCC3)cc2)ncn1` [Example 791, 1-(4-{6-[2-(7-Fluoro-4-methoxy-2-methyl-indol-1-yl)-ethylamino]-pyrimidin-4-yl}-phenyl)-cyclopentanecarboxylic acid], the IC50 against EP4 came to 639 nM; on EP2 it was 325 nM.

As for `COc1cc(F)cc2c1cc(C)n2CCNc1cc(-c2ccc(C(=O)O)c(OC(F)(F)F)c2)ncn1` [compound 604], the IC50 was determined as 325 nM at EP4 and 16 nM at EP2.

Turning to `Cc1ccc(F)c2c1cc(C)n2CCNc1cc(-c2ccc3c(ccn3C)c2)ncn1` [compound 704, [2-(7-Fluoro-2,4-dimethyl-indol-1-yl)-ethyl]-[6-(1-methyl-1H-indol-5-yl)-pyrimidin-4-yl]-amine], the IC50 on EP4 came out at 177 nM; against EP2, 47 nM.

Take `COc1cccc2c1cc(C)n2CCNc1cc(-c2cc(Cl)c(C(=O)O)c(OCC(C)C)c2)ncn1` [compound 691]: the figures for the IC50 against EP4 and against EP2 were 177 nM and 4 nM, respectively.

Take `Cc1cc(F)c(F)c2c1cc(C)n2CCNc1cc(-c2ccc3[nH]ccc3c2)ncn1` [compound 696, [2-(6,7-Difluoro-2,4-dimethyl-indol-1-yl)-ethyl]-[6-(1H-indol-5-yl)-pyrimidin-4-yl]-amine]: the results for the IC50 at EP4 and against EP2 were 131 nM and 42 nM, respectively.

`COc1ccc(F)c2c1cc(C)n2CCNc1cc(-c2ccc(-c3nc(C(=O)O)cs3)cc2)ncn1` [compound 580]: the IC50 against EP4 amounted to 32 nM; against EP2, 4 nM.

Take `COc1cccc2c1cc(C)n2CCNc1cc(-c2ccc(C(=O)O)c(OC(F)F)c2)ncn1` [compound 598]: the IC50 against EP4 was 336 nM; against EP2, 2 nM.
